From patent US7498341B2, “Heterocyclically substituted 7-amino-4-quinolone-3-carboxylic acid derivatives, process for their preparation and their use as medicaments” (Sanofi Aventis Deutschland GmbH, priority 2004, dated 2009)

Molecular target: T1, human glycogen phosphorylase a (Homo sapiens, UniProt P06737)
T1 sequence (P06737 2-847 limits assumed): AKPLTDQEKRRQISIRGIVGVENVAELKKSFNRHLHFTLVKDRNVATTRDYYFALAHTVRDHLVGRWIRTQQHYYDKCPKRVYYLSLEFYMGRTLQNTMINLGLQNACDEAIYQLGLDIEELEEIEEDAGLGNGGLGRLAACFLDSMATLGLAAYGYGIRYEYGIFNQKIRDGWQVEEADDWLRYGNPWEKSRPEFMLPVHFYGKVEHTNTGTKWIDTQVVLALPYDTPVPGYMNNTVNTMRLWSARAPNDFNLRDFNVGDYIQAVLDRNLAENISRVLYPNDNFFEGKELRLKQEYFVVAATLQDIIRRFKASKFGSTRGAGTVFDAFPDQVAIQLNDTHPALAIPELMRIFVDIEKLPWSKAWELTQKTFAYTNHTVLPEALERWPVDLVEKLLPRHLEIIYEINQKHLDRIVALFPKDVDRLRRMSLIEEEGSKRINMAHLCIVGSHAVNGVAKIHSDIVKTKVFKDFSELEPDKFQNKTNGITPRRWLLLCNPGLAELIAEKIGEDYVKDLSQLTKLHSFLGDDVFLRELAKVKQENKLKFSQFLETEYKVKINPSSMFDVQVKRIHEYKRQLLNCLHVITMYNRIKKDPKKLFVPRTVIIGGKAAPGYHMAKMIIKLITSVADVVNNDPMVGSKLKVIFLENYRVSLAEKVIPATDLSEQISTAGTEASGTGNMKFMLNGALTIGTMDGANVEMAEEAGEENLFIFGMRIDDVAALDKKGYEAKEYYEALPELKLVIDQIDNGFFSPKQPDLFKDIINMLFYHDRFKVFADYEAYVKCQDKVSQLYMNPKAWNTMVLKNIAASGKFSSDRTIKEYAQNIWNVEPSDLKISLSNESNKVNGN
Experiment: Glycogen phosphorylase a activity assay (reverse direction, liberation of inorganic phosphate)
Assay type: biochemical
Settings: 10 μM test substance; in vitro inhibition of glycogen phosphorylase a
Procedure: Glycogen phosphorylase a Activity Assay
All the reactions were carried out as duplicate determinations in microtiter plates with 96 wells (Half Area Plates, Costar No 3696), measuring the change in absorption owing to the formation of the reaction product at the wavelength specified hereinafter in a Multiskan Ascent Elisa Reader (Lab Systems, Finland).
In order to measure the GPa enzymic activity in the reverse direction, the general method of Engers et al. (Engers H D, Shechosky S, Madsen N B, Can J Biochem 1970 July; 48(7):746-754) was used to measure the conversion of glucose 1-phosphate into glycogen and inorganic phosphate, with the following modifications: human glycogen phosphorylase a (for example with 0.76 mg of protein/ml (Aventis Pharma Deutschland GmbH), dissolved in buffer solution E (25 mM β-glycerophosphate, pH 7.0, 1 mM EDTA and 1 mM dithiothreitol) was diluted with buffer T (50 mM Hepes, pH 7.0, 100 mM KCl, 2.5 mM EDTA, 2.5 mM MgCl2.6H2O) and addition of 5 mg/ml glycogen to a concentration of 10 μg of protein/ml. […] The baseline glycogen phosphorylase a activity in the absence of test substance was determined by adding 10 μl of buffer solution T (0.1% DMSO). […] After incubation at 45° C. for 60 minutes, the absorption at 820 nm was measured. […]

Row | SMILES | % inhibition at 10 μM [%]
1 | Cc1ccc(C)n1Nc1cc2c(=O)c(C(=O)O)cn(Cc3ccccc3)c2cc1Cl [Example 42, 1-Benzyl-7-chloro-6-(2,5-dimethylpyrrol-1-ylamino)-4-oxo-1,4-dihydroquinolone-3-carboxylic acid] | 101
2 | CCn1cc(C(=O)OCOC(=O)C(C)(C)C)c(=O)c2cc(Nn3c(C)ccc3C)c(Cl)cc21 [Example 53, 2,2-Dimethylpropionyloxymethyl 7-chloro-6-(2,5-dimethylpyrrol-1-ylamino)-1-ethyl-4-oxo-1,4-dihydroquinolone-3-carboxylate] | 93
